Experiment [1] relates to maize HD1-B (a class I HDAC). Particulars: cited from earlier work.
The test system of the next experiment is HD1-A (a class II HDAC). The note with it: cited from earlier work.
The subject of a further experiment is HDAC1. Particulars: cited from earlier work.
For a further experiment, the system named is HDAC6. Particulars: cited from earlier work.
The target of a further experiment is T1, zCD1 (Danio rerio, UniProt F8W4B7).
T1 sequence (F8W4B7 60-419): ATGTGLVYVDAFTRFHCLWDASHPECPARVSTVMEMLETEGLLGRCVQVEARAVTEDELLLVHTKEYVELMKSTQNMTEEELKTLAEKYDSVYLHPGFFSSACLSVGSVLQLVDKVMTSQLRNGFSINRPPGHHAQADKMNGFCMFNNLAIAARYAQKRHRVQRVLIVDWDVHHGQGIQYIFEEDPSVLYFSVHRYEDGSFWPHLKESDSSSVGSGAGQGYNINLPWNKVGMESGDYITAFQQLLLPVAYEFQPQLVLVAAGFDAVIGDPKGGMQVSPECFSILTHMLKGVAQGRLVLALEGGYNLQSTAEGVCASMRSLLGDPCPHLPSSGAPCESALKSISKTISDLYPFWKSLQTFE
Briefly: Steady-state kinetics, fluorogenic substrates. Type of experiment: biochemical.

SMILES strings stand for the structures. Where a SMILES comes first, the peptide text is derived from it. [ ]: non-standard residue; d: D form. The star is where a group is joined. ξ: configuration not given here. Aoe(9ξ) = N[C@@H](CCCCCC(=O)C1CO1)C(=O)O; AMC = Cc1cc(=O)oc2cc(N*)ccc12; dPip = O=C(O)[C@H]1CCCCN1

For `C[C@@H]1NC(=O)[C@H]2CCCN2C(=O)[C@H](CCCCCC(=O)[C@@H]2CO2)NC(=O)[C@@H](C)NC1=O` [HC toxin, cyclo-(L-Ala-D-Ala-L-Aoe-D-Pro)], the figures for the mode of inhibition entry (in experiment [1]; in the experiment on HD1-A (a class II HDAC)) were “irreversible inhibition” and “reversible inhibition”, respectively.

Consider `O=C(CCCCC[C@@H]1NC(=O)[C@H]2CCCCN2C(=O)[C@H](Cc2ccccc2)NC(=O)[C@H](Cc2ccccc2)NC1=O)C1CO1` (some centres unmarked) [trapoxin] (cyclo(FF[dPip][Aoe(9ξ)])), for which the values for the mode of inhibition entry in the experiment with HDAC1 and in the experiment on HDAC6 were “potent irreversible inhibitor” and “reversible inhibitor”, respectively.

`CC(=O)NCCCC[C@H](NC(=O)CNC(=O)[C@H](CCCNC(=N)N)NC(C)=O)C(=O)Nc1ccc2c(C)cc(=O)oc2c1` [Substrate 8, Ac-Arg-Gly-Lys(Ac)-AMC] (Ac-Arg-Gly-Lys(Ac)-{AMC}): the “kcat/KM reduced, zCD1 compared with zCD2” value at zCD1 turned out to be 7 fold.

The values are drawn from article PMC4990478 (Nature chemical biology, 2016).
